“Also recorded” adds a separate entry of the source.
Experiments:
[1] = system: H3255 (L858R) lung cancer cell line
Experimental: (§1) To validate this, we evaluated the cellular effects of bisphosphonates in EGFR-negative and EGFR-positive cancer cell lines. Mutated cancer cell lines, namely H520, H1666, H3255, HC827, A549, H1650, MCF-7, Caco-2, SW620, and SW480, were grown using standard protocols, and exposed to bisphosphonates. Thereafter, the cells were subject to the MTT assay to assess viability using a commercial kit. Additionally, in certain instances, annexin V staining was performed using a previously described protocol. Quantitative PCR (qPCR) for BCL, Bax, survivin, as well as for the thirteen bisphosphonate signature genes (FIG. 1) was carried out. Protein extracts were subject to SDS-PAGE followed by Western immunoblotting using antibodies to PARP, Akt (total and phosphorylated), Erk (total and phosphorylated), cyclin D1, cyclin B1, PCNA, and GAPDH (Santa Cruz, USA). Flow cytometry and colony forming assays were also performed.
(§2) Based on this prediction, and the common occurrence of these mutations in lung cancer patients, we examined the effect of available approved bisphosphonates on lung cancer cell lines that are driven by the L858R (H3255) or del746-750 (HCC827) mutation (FIGS. 6 and 7).

[2] = system: HCC827 (del746-750) lung cancer cell line; format: cell-based
Experimental: as §1, §2

[3] = biological target: T1, recombinant Her2 (Homo sapiens, UniProt P04626); assay: Cell-free in vitro kinase assay using recombinant Her2 (Kinase-Glo); format: biochemical; conditions: incubated 30 minutes with 50 ng recombinant Her2
T1 construct: purchased GENWAY
T1 sequence (P04626 23-1255): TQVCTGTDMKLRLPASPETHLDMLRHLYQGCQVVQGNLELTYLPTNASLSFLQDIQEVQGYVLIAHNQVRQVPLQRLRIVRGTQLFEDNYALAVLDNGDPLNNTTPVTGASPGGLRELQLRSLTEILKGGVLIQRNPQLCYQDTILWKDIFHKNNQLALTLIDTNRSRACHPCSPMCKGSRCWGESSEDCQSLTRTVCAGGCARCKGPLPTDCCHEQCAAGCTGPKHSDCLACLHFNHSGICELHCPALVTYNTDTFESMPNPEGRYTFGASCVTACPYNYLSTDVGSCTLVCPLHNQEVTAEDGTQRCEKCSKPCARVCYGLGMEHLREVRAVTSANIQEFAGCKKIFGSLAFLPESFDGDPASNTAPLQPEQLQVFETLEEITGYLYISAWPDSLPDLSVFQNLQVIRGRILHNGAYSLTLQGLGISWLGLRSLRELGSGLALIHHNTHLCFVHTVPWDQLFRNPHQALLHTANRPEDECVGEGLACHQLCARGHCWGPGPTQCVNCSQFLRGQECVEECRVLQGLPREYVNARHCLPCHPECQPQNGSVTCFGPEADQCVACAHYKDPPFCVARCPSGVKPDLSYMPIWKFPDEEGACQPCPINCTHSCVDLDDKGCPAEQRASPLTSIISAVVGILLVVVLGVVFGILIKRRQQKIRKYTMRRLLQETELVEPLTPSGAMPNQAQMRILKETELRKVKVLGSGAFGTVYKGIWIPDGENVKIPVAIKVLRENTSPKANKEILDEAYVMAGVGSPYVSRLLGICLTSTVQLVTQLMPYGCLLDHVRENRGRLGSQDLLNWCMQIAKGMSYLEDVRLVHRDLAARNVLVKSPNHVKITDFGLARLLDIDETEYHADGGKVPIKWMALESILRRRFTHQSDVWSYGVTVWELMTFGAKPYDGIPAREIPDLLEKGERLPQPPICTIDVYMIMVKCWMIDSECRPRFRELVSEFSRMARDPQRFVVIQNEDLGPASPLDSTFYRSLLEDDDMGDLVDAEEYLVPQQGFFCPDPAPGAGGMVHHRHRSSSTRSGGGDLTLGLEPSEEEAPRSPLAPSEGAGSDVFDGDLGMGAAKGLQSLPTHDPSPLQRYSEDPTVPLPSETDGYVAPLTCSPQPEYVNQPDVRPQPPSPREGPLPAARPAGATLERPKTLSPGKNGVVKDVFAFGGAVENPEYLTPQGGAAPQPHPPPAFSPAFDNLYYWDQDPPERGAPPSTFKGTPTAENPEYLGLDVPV
Experimental: We also performed a cell-free in vitro kinase assay to determine if bisphosphonates could inhibit Her2 activity. Briefly, Ert, ZA, Ris, MA, or Til (doses as shown in FIG. 28A) were incubated for 30 minutes with 50 ng recombinant Her2 or EGFR^L858R protein (GENWAY) at 4° C. and tyrosine kinase activity was measured. Following addition of assay buffer (SIGMA) which contained the poly(Glu, Tyr) (4:1) substrate and ATP, the kinase reaction was allowed to proceed for 30 minutes at 30° C. An equal volume of Kinase-Glo substrate (PROMEGA) was then added, and luminescence read manually (TD-20/20, TURNER DESIGN).

[4] = system: lung cancer cell line A549; conditions: A549, wild type EGFR, ras mutation driven
Experimental: as §1

[5] = system: H1975 (L858R/T790M) lung adenocarcinoma cell line; assay: Colony formation, H1975; format: cell-based
Experimental: To test this hypothesis, colony formation and cell viability assays were carried out using a L858R/T790M-derived lung adenocarcinoma cell line, H1975.

[6] = system: HCC827 cells; assay: FACS analysis and Western blotting for cell cycle and apoptosis, HCC827; format: cell-based
Experimental: as §1

[7] = system: HCC827 cells; conditions: mouse, in vivo
Experimental: To verify that that the in vitro experiments described above translated to in vivo efficacy, the effect of bisphosphonates and EGFR inhibitors on tumors in mice were evaluated. HCC827 cells (1×10^8) were injected into the right flank of 6- to 8-week-old female BALB/c nu/nu mice. […] A total of 10 treatments were given, with a 48-hour rest period between injections. Tumor volumes were measured during the rest period following each treatment.
To verify the in vivo mechanism of action, Western analysis and immunohistochemistry were performed on tumor samples at the end of the 10-treatment course. For Western analysis, whole cell protein extracts were obtained with radio-immunoprecipitation assay buffer following standard protocols (Santa Cruz Biotechnology). […] Biotinylated anti-rabbit IgG (E0432, Dako) was used as secondary antibody. Staining was visualized using DAB, and slides were counterstained with hematoxylin, dehydrated, and mounted. Bright-field and fluorescent images were captured using a Stereoscope or Axioplan 2 IE microscope (Zeiss).

[8] = system: osteoclast formation; assay: Osteoclast formation assays in vitro; format: cell-based; conditions: data not shown
Experimental: We interrogated CMAP with this gene signature to identify chemicals with similar genomic mechanisms to bisphosphonates. Drug-drug matching was performed by a nonparametric, rank-based algorithm using Kolmogorov-Smirnov statistic. Gene Set Enrichment Analysis (GSEA) examined shared mechanisms of action to reveal both mimics and anti-mimics of a given compound or disease. Of the chemicals displaying the highest enrichment scores, the top two were anti-cancer agents, namely the PARP inhibitor 1,5-isoquinolinediol, and a first-generation EGFR kinase inhibitor tyrphostin AG1478 (FIG. 2). These compounds were confirmed as “true” bisphosphonate mimetics using osteoclast formation assays in vitro. As with bisphosphonates, osteoclast formation was inhibited by both 1,5-isoquinolinediol and tyrphostin AG1478, the latter in a concentration-dependent manner (data not shown).

[9] = system: EGFR-expressing colon cells (SW480); assay: Colony formation (clonogenic assay), SW480; format: cell-based
Experimental: as §1

[10] = system: EGFR negative (SW620) colon cancer cell line; assay: Colony formation (clonogenic assay), SW620; format: cell-based
Experimental: as §1

[11] = system: MDA-MB-231 cells; assay: MTT cell viability, MDA-MB-231; format: cell-based; conditions: MDA-MB-231, overexpress EGFR
Description: (§3) Thereafter, the cells were subject to the MTT assay to assess viability using a commercial kit.

[12] = system: HER2-expressing (BT474) breast cancer cell line; assay: FACS cell cycle profile (sub-G1), BT474; format: cell-based
[13] = system: non-EGFR, non-HER2-expressing (MDA-MB-453) breast cancer cell line; assay: FACS cell cycle profile (sub-G1), MDA-MB-453; format: cell-based
[14] = system: EGFR-expressing (MDA-MB-231) breast cancer cell line; assay: FACS cell cycle profile (sub-G1), MDA-MB-231; format: cell-based
[15] = system: HCC827 cells; assay: Colony formation, HCC827; format: cell-based; conditions: tiludronate 40 μM
Experimental: as §1, §2

[16] = system: BT474 cells; assay: MTT cell viability, BT474; format: cell-based; conditions: BT474, overexpress Her2
Description: as §3

[17] = system: MDA-MB-231 cells; assay: Colony formation, MDA-MB-231; format: cell-based; conditions: tiludronate 20 μM, data not shown
[18] = biological target: recombinant EGFR (Homo sapiens, UniProt P00533); conditions: 100 μM, incubated 1 hour
Sequence of recombinant EGFR (P00533 25-1210): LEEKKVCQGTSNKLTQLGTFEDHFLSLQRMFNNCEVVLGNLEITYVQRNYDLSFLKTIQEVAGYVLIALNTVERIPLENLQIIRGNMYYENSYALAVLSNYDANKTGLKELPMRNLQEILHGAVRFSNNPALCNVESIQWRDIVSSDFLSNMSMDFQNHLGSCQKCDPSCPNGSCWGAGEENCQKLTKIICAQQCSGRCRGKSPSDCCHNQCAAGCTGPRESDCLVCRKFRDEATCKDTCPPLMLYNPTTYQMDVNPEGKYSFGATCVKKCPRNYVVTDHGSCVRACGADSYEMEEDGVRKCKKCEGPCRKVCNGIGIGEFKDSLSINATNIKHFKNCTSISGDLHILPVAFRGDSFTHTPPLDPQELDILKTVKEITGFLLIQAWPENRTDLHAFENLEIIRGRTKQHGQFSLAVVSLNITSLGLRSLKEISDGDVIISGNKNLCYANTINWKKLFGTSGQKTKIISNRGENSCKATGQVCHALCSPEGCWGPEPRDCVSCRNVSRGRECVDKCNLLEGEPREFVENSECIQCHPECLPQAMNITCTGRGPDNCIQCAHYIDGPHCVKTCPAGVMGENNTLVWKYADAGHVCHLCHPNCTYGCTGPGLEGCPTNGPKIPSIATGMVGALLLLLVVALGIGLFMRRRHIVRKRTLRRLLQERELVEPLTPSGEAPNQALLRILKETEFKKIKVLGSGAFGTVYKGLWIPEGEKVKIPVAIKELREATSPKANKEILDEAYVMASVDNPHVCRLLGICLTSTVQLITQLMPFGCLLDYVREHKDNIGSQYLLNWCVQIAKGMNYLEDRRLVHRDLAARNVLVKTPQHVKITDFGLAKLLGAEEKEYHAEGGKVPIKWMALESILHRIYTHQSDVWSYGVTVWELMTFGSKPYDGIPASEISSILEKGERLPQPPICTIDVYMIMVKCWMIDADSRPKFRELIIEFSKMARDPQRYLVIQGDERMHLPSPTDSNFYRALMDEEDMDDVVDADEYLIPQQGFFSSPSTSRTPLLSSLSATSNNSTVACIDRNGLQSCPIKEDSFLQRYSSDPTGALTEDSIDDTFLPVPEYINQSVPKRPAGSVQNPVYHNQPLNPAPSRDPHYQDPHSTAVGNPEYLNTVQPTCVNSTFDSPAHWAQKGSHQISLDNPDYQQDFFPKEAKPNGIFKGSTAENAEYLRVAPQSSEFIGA
Description: We used a cell-free in vitro kinase assay using recombinant EGF receptor (EGFR) to determine whether bisphosphonates inhibit the EGFR directly or indirectly. […] A kinase reaction was stimulated with the addition of ATP, following which phosphorylation of the substrate […] was detected using a horseradish peroxidase (HRP)-conjugated anti-phosphotyrosine antibody.

## O=P(O)(O)C(O)(Cc1cnc2ccccn12)P(=O)(O)O [minodronic acid]
[1]
  cell viability / cell survival: inhibiting cell survival; also recorded: two most potent
[2]
  cell viability / cell survival: inhibiting cell survival; also recorded: two most potent
[3]
  Her2 tyrosine kinase activity: inhibit the tyrosine kinase activity of Her2

## C#Cc1cccc(Nc2ncnc3cc(OCCOC)c(OCCOC)cc23)c1 [erlotinib]
[4]
  cell viability: poorly responsive
[5]
  colony formation: did not inhibit colony formation
[6]
  cell cycle and apoptosis: mainly increased PARP expression and apoptosis
[7]
  AKT phosphorylation in tumor samples: inhibited AKT phosphorylation
  CD31 expression (blood vessels) in tumors: inhibited CD31 expression
  ERK phosphorylation in tumor samples: did not inhibit ERK phosphorylation
[3]
  Her2 tyrosine kinase activity: inhibit the tyrosine kinase activity of Her2

## Oc1cccc2c(O)nccc12 [1,5-isoquinolinediol]
[8]
  osteoclast formation: inhibited

## COc1cc2ncnc(Nc3cccc(Cl)c3)c2cc1OC [tyrphostin AG1478]
[8]
  osteoclast formation: inhibited

## O=P(O)(O)C(O)(Cc1cccnc1)P(=O)(O)O [risedronate]
[1]
  cell viability / cell survival: inhibiting cell survival
[2]
  cell viability / cell survival: inhibiting cell survival
[3]
  Her2 tyrosine kinase activity: inhibit the tyrosine kinase activity of Her2

## NCCC(O)(P(=O)(O)O)P(=O)(O)O [pamidronate]
[2]
  cell viability / cell survival: failed to affect HCC827 cell viability

## O=P(O)(O)C(NC1CCCCCC1)P(=O)(O)O [incadronate]
[1]
  cell viability / cell survival: inhibiting cell survival
[2]
  cell viability / cell survival: inhibiting cell survival

## NCCCCCC(O)(P(=O)(O)O)P(=O)(O)O [neridronate]
[2]
  cell viability / cell survival: failed to affect HCC827 cell viability

## O=P(O)(O)C(Sc1ccc(Cl)cc1)P(=O)(O)O [tiludronate]
[9]
  colony formation: has no effect
[10]
  colony formation: has no effect
[11]
  cell viability: has no effect
[12]
  sub-G1 fraction (apoptosis): has no effect
[13]
  sub-G1 fraction (apoptosis): has no effect
[1]
  cell viability / cell survival: failed to affect cell viability; also recorded: without effect
[14]
  sub-G1 fraction (apoptosis): has no effect
[5]
  colony formation: did not affect colony formation
[2]
  cell viability / cell survival: failed to affect cell viability; also recorded: without effect
[15]
  colony formation: not seen
[16]
  cell viability: has no effect
[3]
  Her2 tyrosine kinase activity: inhibit the tyrosine kinase activity of Her2
[17]
  colony formation: not seen

## NCCCC(O)(P(=O)(O)O)P(=O)(O)O [alendronate]
[1]
  cell viability / cell survival: inhibiting cell survival
[2]
  cell viability / cell survival: inhibiting cell survival
[18]
  EGFR kinase activity: directly inhibited EGFR kinase activity

Reference: patent US20160038516A1, “COMBINATION CANCER THERAPY USING BISPHOSPHONATES AND ANTI-EGFR AGENTS” (Mone Zaidi Consulting, Inc., priority 2012, published 2016)
